Laboratory results: patent US7427620B2, “Azole derivative useful as antifungal agents with reduced interaction with metabolic cytochromes” (Italfarmaco SPA, priority 2003, dated 2008)

Assays:
[1] = test system: Candida glabrata; assay: Antifungal activity, liquid phase microdilution (NCCLS M27/M38-P); assay type: cell-based; settings: Candida glabrata strain 02-0902
Experimental: (§1) Experiment A: Antifungal Activity of Compounds of the Formula (I)
(§2) The antifungal activity of the compounds of the formula (I) was determined using various strains of yeast and filamentous fungi. […] Table no.

[2] = test system: Candida parapsilosis; assay: as above; assay type: cell-based; settings: Candida parapsilosis strain ATCC22019
Experimental: as §1, §2

[3] = test system: Candida albicans; assay: as above; assay type: cell-based
Experimental: as §1, §2

[4] = test system: Candida albicans; assay: Mouse model of systemic candidiasis, survival; assay type: in vivo, CD1 mice; settings: for Average survival (days) ± S.D.: observed until day 30
Experimental: Experiment C: Study of the Efficacy of Compounds of the Formula (I) in a Mouse Model of Systemic Candidiasis.
The C. albicans isolate was cultured for 24 h in yeast dextrose broth. The blastospores were recovered by centrifugation, repeatedly washed in sterile saline solution and the inoculum adjusted to the desired concentration. The inoculum was verified by a subsequent count of CFU/ml on Sabouraud plates.
The mice were then inoculated intravenously (0.2 ml/mouse).
24 hours after inoculation with C. albicans, the animals were randomised into the following treatment groups (10 mice/group): • 1. […] Compound under investigation: 50 mg/kg/day (two 25 mg/kg treatments twice daily at 12 hour intervals) • 3. Compound under investigation; 10 mg/kg/day (two 5 mg/kg treatments twice daily at 12 hour intervals) • 4. Control (placebo)
The compounds were administered orally (suspension in PEG 200, 0.2 ml/mouse) for 10 consecutive days and the animals were observed until day 30. The survival curves between the various treatment groups and between these groups and the control group were evaluated using the Kaplan-Meier method.

[5] = target: T1, CYP2C19 (Homo sapiens, UniProt P33261); assay: Inhibition of human cytochromes, fluorescent substrates; assay type: in vitro ADME; settings: isoenzyme (Gentest), 37° C.
T1 construct: purchased Gentest
T1 sequence (P33261 whole entry): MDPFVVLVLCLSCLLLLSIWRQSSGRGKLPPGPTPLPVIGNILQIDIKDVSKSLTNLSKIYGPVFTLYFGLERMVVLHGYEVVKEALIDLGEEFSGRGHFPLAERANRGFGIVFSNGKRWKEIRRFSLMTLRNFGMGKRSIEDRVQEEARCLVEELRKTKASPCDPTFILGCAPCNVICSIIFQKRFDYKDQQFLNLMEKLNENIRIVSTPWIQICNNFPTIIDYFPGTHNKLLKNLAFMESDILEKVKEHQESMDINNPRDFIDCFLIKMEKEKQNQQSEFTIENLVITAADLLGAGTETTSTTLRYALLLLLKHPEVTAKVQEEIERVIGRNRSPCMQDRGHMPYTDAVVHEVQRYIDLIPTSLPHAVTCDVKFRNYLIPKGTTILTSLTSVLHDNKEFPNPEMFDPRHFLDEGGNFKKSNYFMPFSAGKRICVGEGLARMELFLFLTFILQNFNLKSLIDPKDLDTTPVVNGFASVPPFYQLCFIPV
Experimental: (§3) Experiment B: Inhibition of Human Cytochromes by Compounds of the Formula (I)
(§4) Inhibition of the enzymatic activity of the most significant isoforms of human cytochromes by the compounds of the formula (I) was measured by using specific substrates which become fluorescent as a result of the metabolic action of a particular cytochrome isoform. The individual isoenzymes (Gentest) and the respective substrates were incubated in 96 well plates in buffer containing […] at 37° C. in the presence or absence of the compound under investigation. […] The degree of inhibition of each individual isoenzyme by known inhibitors was also assessed as a positive control.

[6] = target: T2, CYP1A2 (Homo sapiens, UniProt P05177); assay: as above; assay type: in vitro ADME; settings: isoenzyme (Gentest), 37° C.
T2 construct: purchased Gentest
T2 sequence (P05177 1-516): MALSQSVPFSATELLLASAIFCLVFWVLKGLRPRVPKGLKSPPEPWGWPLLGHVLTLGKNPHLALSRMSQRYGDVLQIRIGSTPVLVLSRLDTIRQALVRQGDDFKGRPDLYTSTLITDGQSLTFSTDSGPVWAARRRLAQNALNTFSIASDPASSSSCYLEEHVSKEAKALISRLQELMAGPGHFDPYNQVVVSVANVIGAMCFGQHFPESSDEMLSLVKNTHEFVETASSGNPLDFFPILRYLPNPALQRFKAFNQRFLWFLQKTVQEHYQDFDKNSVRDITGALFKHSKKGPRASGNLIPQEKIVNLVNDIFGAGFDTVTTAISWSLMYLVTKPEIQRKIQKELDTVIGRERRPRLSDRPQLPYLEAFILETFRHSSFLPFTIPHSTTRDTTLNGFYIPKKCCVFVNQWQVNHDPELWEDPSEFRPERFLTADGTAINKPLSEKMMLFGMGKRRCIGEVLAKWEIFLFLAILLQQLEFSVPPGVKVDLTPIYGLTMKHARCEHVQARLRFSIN
Experimental: as §3, §4

[7] = target: T3, CYP2C9 (Homo sapiens, UniProt P11712); assay: as above; assay type: in vitro ADME; settings: isoenzyme (Gentest), 37° C.
T3 construct: purchased Gentest
T3 sequence (P11712 whole entry): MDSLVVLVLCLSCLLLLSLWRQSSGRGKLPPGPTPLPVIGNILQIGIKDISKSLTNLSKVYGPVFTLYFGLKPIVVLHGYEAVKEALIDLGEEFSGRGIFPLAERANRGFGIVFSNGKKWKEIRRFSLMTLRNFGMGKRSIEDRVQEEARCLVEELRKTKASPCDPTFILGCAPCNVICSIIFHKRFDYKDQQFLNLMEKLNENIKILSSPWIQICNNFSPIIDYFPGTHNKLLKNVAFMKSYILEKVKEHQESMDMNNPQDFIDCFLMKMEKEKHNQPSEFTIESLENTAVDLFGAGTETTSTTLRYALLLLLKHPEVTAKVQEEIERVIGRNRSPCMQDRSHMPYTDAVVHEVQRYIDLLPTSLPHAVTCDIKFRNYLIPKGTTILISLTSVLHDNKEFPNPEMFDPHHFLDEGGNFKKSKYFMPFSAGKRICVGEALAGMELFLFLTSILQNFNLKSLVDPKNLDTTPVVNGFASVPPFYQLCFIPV
Experimental: as §3, §4

[8] = target: T4, CYP2D6 (Homo sapiens, UniProt P10635); assay: as above; assay type: in vitro ADME; settings: isoenzyme (Gentest), 37° C.
T4 construct: purchased Gentest
T4 sequence (P10635 whole entry): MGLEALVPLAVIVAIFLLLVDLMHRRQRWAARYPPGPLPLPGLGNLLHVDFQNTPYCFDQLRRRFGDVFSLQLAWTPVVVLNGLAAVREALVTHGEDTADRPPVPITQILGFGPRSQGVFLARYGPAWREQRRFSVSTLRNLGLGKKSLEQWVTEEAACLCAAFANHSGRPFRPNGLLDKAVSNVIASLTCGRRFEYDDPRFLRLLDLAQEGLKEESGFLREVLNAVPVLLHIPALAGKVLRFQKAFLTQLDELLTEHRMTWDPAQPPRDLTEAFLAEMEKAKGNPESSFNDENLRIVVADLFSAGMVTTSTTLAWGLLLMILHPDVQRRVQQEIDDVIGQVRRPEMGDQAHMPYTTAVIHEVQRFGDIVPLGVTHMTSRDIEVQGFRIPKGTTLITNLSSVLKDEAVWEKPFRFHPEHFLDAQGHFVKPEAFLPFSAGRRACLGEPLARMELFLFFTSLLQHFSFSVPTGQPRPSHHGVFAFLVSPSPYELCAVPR
Experimental: as §3, §4

[9] = test system: Aspergillus fumigatus; assay: Antifungal activity, liquid phase microdilution (NCCLS M27/M38-P); assay type: cell-based; set-up: IC50 (minimum concentration to bring about 50% inhibition): unit not given here
Experimental: as §1, §2

[10] = target: T5, CYP3A4 (Homo sapiens, UniProt P08684); assay: Inhibition of human cytochromes, fluorescent substrates; assay type: in vitro ADME; settings: isoenzyme (Gentest), 37° C.
T5 construct: purchased Gentest
T5 sequence (P08684 whole entry): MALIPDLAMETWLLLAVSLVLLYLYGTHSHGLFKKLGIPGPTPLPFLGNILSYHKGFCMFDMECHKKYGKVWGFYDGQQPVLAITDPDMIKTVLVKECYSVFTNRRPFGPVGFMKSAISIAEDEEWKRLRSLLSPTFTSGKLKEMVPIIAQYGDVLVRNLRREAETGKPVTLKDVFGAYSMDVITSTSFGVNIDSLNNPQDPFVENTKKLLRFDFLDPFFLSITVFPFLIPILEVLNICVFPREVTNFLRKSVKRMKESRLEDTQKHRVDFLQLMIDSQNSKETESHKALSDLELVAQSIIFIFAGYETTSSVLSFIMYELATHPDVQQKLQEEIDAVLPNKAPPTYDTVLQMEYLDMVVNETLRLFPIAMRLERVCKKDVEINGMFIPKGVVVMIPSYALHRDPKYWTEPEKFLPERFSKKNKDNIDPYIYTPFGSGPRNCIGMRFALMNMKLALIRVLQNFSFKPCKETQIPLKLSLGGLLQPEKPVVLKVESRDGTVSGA
Experimental: as §3
The individual isoenzymes (Gentest) and the respective substrates were incubated in 96 well plates in buffer containing […] at 37° C. in the presence or absence of the compound under investigation. […] The degree of inhibition of each individual isoenzyme by known inhibitors was also assessed as a positive control.

[11] = 10 mg/kg/day orally (5 mg/kg twice daily) for 10 days
[12] = 50 mg/kg/day orally (25 mg/kg twice daily) for 10 days

## cis(±)-4-{4-[4-{4-[2-(pyridin-2-yl)-2-(1H-1,2,4-triazol-1-ylmethyl)-1,3-dioxolan-4-yl-methoxy]phenyl}-1-piperazinyl]-phenyl}-2-(1-(R,S)methylpropyl)-2,4-dihydro-3H-1,2,4-triazol-3-one [Example 9]
[1]
  IC50 (minimum concentration to bring about 50% inhibition): 1 mg/mL
[2]
  IC50 (minimum concentration to bring about 50% inhibition): ≦0.03 mg/ml
[3]; Candida albicans strain 21
  IC50 (minimum concentration to bring about 50% inhibition): 39 mg/mL
[3]; Candida albicans strain gen-45
  IC50 (minimum concentration to bring about 50% inhibition): ≦0.03 mg/ml
[4]; [11]
  Surviving mice 21 days after infection: 0%
  Average survival (days) ± S.D.: 6.6 ± 0.8 days
[4]; [12]
  Surviving mice 21 days after infection: 10%
  Average survival (days) ± S.D.: 9.1 ± 1.5 days
[5]
  IC50: 40.7 ± 12.7 µM
[6]
  IC50: > 100 µM
[7]
  IC50: 54.1 ± 5.2 µM
[8]
  IC50: > 100 µM
[9]; Aspergillus fumigatus strain 34
  IC50 (minimum concentration to bring about 50% inhibition): 0.25
[9]; Aspergillus fumigatus strain 99-2135
  IC50 (minimum concentration to bring about 50% inhibition): 0.25
[10]
  IC50: 0.22 ± 0.05 µM
